Test results from patent US7981893B2, “Heteroaryl compounds, compositions thereof, and methods of treatment therewith” (Signal Pharmaceuticals, LLC, priority 2006, dated 2011).

Row | Compound | melting point
1 | Cl.O=c1[nH]c2ncc(-c3ccc(O)cc3)nc2n1CC1CCCN1 (stereo not drawn) | 178 to 180 °C
2 | Cl.O=c1[nH]c2ncc(-c3ccc(-c4nnc[nH]4)cc3)nc2n1CCN1CCCCC1 | 194 to 197 °C
3 | CC(c1ccccc1)n1c(=O)[nH]c2ncc(-c3ccnc4ccccc34)nc21 (stereo not drawn) [Compound 70, 1-(1-phenylethyl)-6-(quinolin-4-yl)-1H-imidazo[4,5-b]pyrazin-2(3H)-one] | 252 to 254 °C
4 | COc1ccccc1-n1c(=O)[nH]c2ccc(-c3cccc(O)c3)nc21 [Compound 92, 5-(3-Hydroxyphenyl)-3-(2-methoxyphenyl)-1H-imidazo[4,5-b]pyridin-2(3H)-one] | 240 to 242 °C
5 | O=c1[nH]c2ncc(-c3ccc(O)cc3)nc2n1C1CCCCC1 [Compound 95, 1-Cyclohexyl-6-(4-hydroxyphenyl)-1H-imidazo[4,5-b]pyrazin-2(3H)-one] | 318 to 320 °C
6 | NC(=O)c1ccc(-c2cnc3[nH]c(=O)n(CC4CCCCC4)c3n2)cc1 [Compound 96, 4-(3-(Cyclohexylmethyl)-2-oxo-2,3-dihydro-1H-imidazo[4,5-b]pyrazin-5-yl)benzamide] | 293 to 295 °C
7 | COC(=O)c1ccc(-c2cnc3[nH]c(=O)n(CC4CCCCC4)c3n2)cc1 [Compound 97, Methyl 4-(3-(cyclohexylmethyl)-2-oxo-2,3-dihydro-1H-imidazo[4,5-b]pyrazin-5-yl)benzoate] | 253 to 255 °C
8 | O=c1[nH]c2ncc(-c3ccncc3)nc2n1CC1CCCCC1 [Compound 98, 1-(Cyclohexylmethyl)-6-(pyridin-4-yl)-1H-imidazo[4,5-b]pyrazin-2(3H)-one] | 267 to 269 °C
9 | O=c1[nH]c2ncc(-c3ccc4[nH]ccc4c3)nc2n1CC1CCCCC1 [Compound 103, 1-(Cyclohexylmethyl)-6-(1H-indol-5-yl)-1H-imidazo[4,5-b]pyrazin-2(3H)-one] | 343 to 346 °C
10 | CC(C)NC(=O)c1ccc(-c2cnc3[nH]c(=O)n(CC4CCCCC4)c3n2)cc1 [Compound 104, 4-(3-(Cyclohexylmethyl)-2-oxo-2,3-dihydro-1H-imidazo[4,5-b]pyrazin-5-yl)-N-isopropylbenzamide] | 264 to 268 °C
11 | O=c1[nH]c2ncc(-c3ccc(O)cc3)nc2n1CCO [Compound 105, 1-(2-Hydroxyethyl)-6-(4-hydroxyphenyl)-1H-imidazo[4,5-b]pyrazin-2(3H)-one] | 308 to 310 °C
12 | O=c1[nH]c2ncc(-c3ccc4cc[nH]c4c3)nc2n1CC1CCCCC1 [Compound 106, 1-(Cyclohexylmethyl)-6-(1H-indol-6-yl)-1H-imidazo[4,5-b]pyrazin-2(3H)-one] | 359 to 363 °C
13 | CN1CCC(Cn2c(=O)[nH]c3ncc(-c4ccc(O)cc4)nc32)CC1 [Compound 109, 6-(4-Hydroxyphenyl)-1-((1-methylpiperidin-4-yl)methyl)-1H-imidazo[4,5-b]pyrazin-2(3H)-one] | 292 to 294 °C
14 | CC(C)(O)c1ccc(-c2cnc3[nH]c(=O)n(CC4CCCCC4)c3n2)cc1 [Compound 114, 1-(Cyclohexylmethyl)-6-(4-(2-hydroxypropan-2-yl)phenyl)-1H-imidazo[4,5-b]pyrazin-2(3H)-one] | 226 to 228 °C
15 | O=C(O)c1ccc(-c2cnc3[nH]c(=O)n(CC4CCCCC4)c3n2)cc1 [Compound 116, 4-(3-(Cyclohexylmethyl)-2-oxo-2,3-dihydro-1H-imidazo[4,5-b]pyrazin-5-yl)benzoic acid] | > 350 °C
16 | COCCCn1c(=O)[nH]c2ncc(-c3ccc(O)cc3)nc21 [Compound 118, 6-(4-Hydroxyphenyl)-1-(3-methoxypropyl)-1H-imidazo[4,5-b]pyrazin-2(3H)-one] | 208 to 210 °C
17 | O=c1[nH]c2ncc(-c3ccc(O)cc3)nc2n1CCC1CCOCC1 [Compound 120, 6-(4-Hydroxyphenyl)-1-(2-(tetrahydro-2H-pyran-4-yl)ethyl)-1H-imidazo[4,5-b]pyrazin-2(3H)-one] | 276 to 277 °C
18 | O=c1[nH]c2ncc(-c3ccc(O)cc3)nc2n1CCc1ccccc1 [Compound 121, 6-(4-Hydroxyphenyl)-1-phenethyl-1H-imidazo[4,5-b]pyrazin-2(3H)-one] | 283 to 284 °C
19 | O=c1[nH]c2ncc(-c3cn[nH]c3)nc2n1CC1CCCCC1 [Compound 126, 1-(Cyclohexylmethyl)-6-(1H-pyrazol-4-yl)-1H-imidazo[4,5-b]pyrazin-2(3H)-one] | 246 to 248 °C
20 | O=C1Cc2cc(-c3cnc4[nH]c(=O)n(CC5CCCCC5)c4n3)ccc2N1 [Compound 129, 1-(Cyclohexylmethyl)-6-(2-oxoindolin-5-yl)-1H-imidazo[4,5-b]pyrazin-2(3H)-one] | 313 to 316 °C
21 | O=c1[nH]c2ncc(-c3ccc4[nH]ncc4c3)nc2n1CC1CCCCC1 [Compound 130, 1-(Cyclohexylmethyl)-6-(1H-indazol-5-yl)-1H-imidazo[4,5-b]pyrazin-2(3H)-one] | 311 to 313 °C
22 | COc1ccc(-c2cnc3[nH]c(=O)n(CC4CCCCC4)c3n2)cn1 [Compound 131, 1-(Cyclohexylmethyl)-6-(6-methoxypyridin-3-yl)-1H-imidazo[4,5-b]pyrazin-2(3H)-one] | 235 to 237 °C
23 | O=c1[nH]c2ncc(-c3ccc(O)cc3)nc2n1C1CCOCC1 [Compound 132, 6-(4-Hydroxyphenyl)-1-(tetrahydro-2H-pyran-4-yl)-1H-imidazo[4,5-b]pyrazin-2(3H)-one] | 382 to 383 °C
24 | O=c1[nH]c2ncc(-c3ccc(O)cc3)nc2n1CC1CCNCC1 [Compound 133, 6-(4-Hydroxyphenyl)-1-(piperidin-4-ylmethyl)-1H-imidazo[4,5-b]pyrazin-2(3H)-one] | 300 °C (dec.)
25 | O=c1[nH]c2ncc(-c3ccc(O)nc3)nc2n1CC1CCCCC1 [Compound 135, 1-(Cyclohexylmethyl)-6-(6-hydroxypyridin-3-yl)-1H-imidazo[4,5-b]pyrazin-2(3H)-one] | > 400 °C
26 | Cc1cc(C(=O)O)ccc1-c1cnc2[nH]c(=O)n(CC3CCCCC3)c2n1 [Compound 141, 4-(3-(Cyclohexylmethyl)-2-oxo-2,3-dihydro-1H-imidazo[4,5-b]pyrazin-5-yl)-3-methyl benzoic acid] | 244 to 247 °C
27 | NC(=O)c1ccc(-c2cnc3[nH]c(=O)n(CC4CCOCC4)c3n2)cc1 [Compound 143, 4-(2-oxo-3-((Tetrahydro-2H-pyran-4-yl)methyl)-2,3-dihydro-1H-imidazo[4,5-b]pyrazin-5-yl)benzamide] | 273 to 275 °C
28 | CC(C)(O)c1ccc(-c2cnc3[nH]c(=O)n(CC4CCOCC4)c3n2)cc1 [Compound 145, 6-(4-(2-Hydroxypropan-2-yl)phenyl)-1-((tetrahydro-2H-pyran-4-yl)methyl)-1H-imidazo[4,5-b]pyrazin-2(3H)-one] | 212 to 214 °C

More lines, now with the values ahead:

Row | melting point | Compound
29 | 326 to 329 °C | Cl.NCc1nc(-c2ccc(-c3cnc4[nH]c(=O)n(CC5CCCCC5)c4n3)cc2)n[nH]1
30 | 273 to 275 °C | CNC(=O)c1ccc(-c2cnc3[nH]c(=O)n(CC4CCCCC4)c3n2)cc1 [Compound 99, 4-(3-(Cyclohexylmethyl)-2-oxo-2,3-dihydro-1H-imidazo[4,5-b]pyrazin-5-yl)-N-methylbenzamide]
31 | 275 to 277 °C | O=c1[nH]c2ncc(-c3ccc(CO)cc3)nc2n1CC1CCCCC1 [Compound 100, 1-(Cyclohexylmethyl)-6-(4-(hydroxymethyl)phenyl)-1H-imidazo[4,5-b]pyrazin-2(3H)-one]
32 | 205 °C | O=c1[nH]c2ncc(-c3cccnc3)nc2n1CC1CCCCC1 [Compound 101, 1-(Cyclohexylmethyl)-6-(pyridin-3-yl)-1H-imidazo[4,5-b]pyrazin-2(3H)-one]
33 | 255 to 257 °C | N#Cc1ccc(-c2cnc3[nH]c(=O)n(CC4CCCCC4)c3n2)cc1 [Compound 110, 4-(3-(Cyclohexylmethyl)-2-oxo-2,3-dihydro-1H-imidazo[4,5-b]pyrazin-5-yl)benzonitrile]
34 | 212 to 214 °C | Cc1cc(O)ccc1-c1cnc2[nH]c(=O)n(CC3CCCCC3)c2n1 [Compound 115, 1-(Cyclohexylmethyl)-6-(4-hydroxy-2-methylphenyl)-1H-imidazo[4,5-b]pyrazin-2(3H)-one]
35 | 236 to 237 °C | COCCn1c(=O)[nH]c2ncc(-c3ccc(O)cc3)nc21 [Compound 117, 6-(4-Hydroxyphenyl)-1-(2-methoxyethyl)-1H-imidazo[4,5-b]pyrazin-2(3H)-one]
36 | 282 to 283 °C | COc1cccc(CN2CC(=O)Nc3ncc(-c4ccc(O)cc4)nc32)c1 [Compound 119, 6-(4-Hydroxyphenyl)-4-(3-methoxybenzyl)-3,4-dihydropyrazino[2,3-b]pyrazin-2(1H)-one]
37 | 253 to 255 °C | O=c1[nH]c2ncc(-c3ccccc3)nc2n1CC1CCCCC1 [Compound 124, 1-(Cyclohexylmethyl)-6-phenyl-1H-imidazo[4,5-b]pyrazin-2(3H)-one]
38 | 264 to 266 °C | O=c1[nH]c2ncc(-c3ccn[nH]3)nc2n1CC1CCCCC1 [Compound 125, 1-(Cyclohexylmethyl)-6-(1H-pyrazol-5-yl)-1H-imidazo[4,5-b]pyrazin-2(3H)-one]
39 | 337 to 339 °C | O=C1NCc2cc(-c3cnc4[nH]c(=O)n(CC5CCCCC5)c4n3)ccc21 [Compound 127, 1-(Cyclohexylmethyl)-6-(1-oxoisoindolin-5-yl)-1H-imidazo[4,5-b]pyrazin-2(3H)-one]
40 | 295 to 297 °C | COc1cc(-c2cnc3[nH]c(=O)n(CC4CCCCC4)c3n2)ccn1 [Compound 136, 1-(Cyclohexylmethyl)-6-(2-methoxypyridin-4-yl)-1H-imidazo[4,5-b]pyrazin-2(3H)-one]
41 | 334 to 336 °C | O=C1Cc2ccc(-c3cnc4[nH]c(=O)n(CC5CCCCC5)c4n3)cc2N1 [Compound 140, 1-(Cyclohexylmethyl)-6-(2-oxoindolin-6-yl)-1H-imidazo[4,5-b]pyrazin-2(3H)-one]
42 | 328 to 330 °C | CNC(=O)c1ccc(-c2cnc3[nH]c(=O)n(CC4CCOCC4)c3n2)cc1 [Compound 142, N-Methyl-4-(2-oxo-3-((tetrahydro-2H-pyran-4-yl)methyl)-2,3-dihydro-1H-imidazo[4,5-b]pyrazin-5-yl)benzamide]
